# Assay results as given in ChEMBL document CHEMBL4819069, “Discovery of multifunctional anti-Alzheimer's agents with a unique mechanism of action including inhibition of the enzyme butyrylcholinesterase and γ-aminobutyric acid transporters” (Eur J Med Chem, 2021).
# pIC50: −log10 of the molar value.
# Experiments:
# [1] = biological target: Cholinesterase (Equus caballus) (UniProt P81908); assay: Inhibition of equine serum BuChE at 10 uM using butyrylthiocholine as substrate preincubated for 5 mins followed by substrate addition and measured after 5 mins by Ellman's method relative to control; details: time 10.0 min
# Sequence of Cholinesterase (Equus caballus) (P81908 whole entry): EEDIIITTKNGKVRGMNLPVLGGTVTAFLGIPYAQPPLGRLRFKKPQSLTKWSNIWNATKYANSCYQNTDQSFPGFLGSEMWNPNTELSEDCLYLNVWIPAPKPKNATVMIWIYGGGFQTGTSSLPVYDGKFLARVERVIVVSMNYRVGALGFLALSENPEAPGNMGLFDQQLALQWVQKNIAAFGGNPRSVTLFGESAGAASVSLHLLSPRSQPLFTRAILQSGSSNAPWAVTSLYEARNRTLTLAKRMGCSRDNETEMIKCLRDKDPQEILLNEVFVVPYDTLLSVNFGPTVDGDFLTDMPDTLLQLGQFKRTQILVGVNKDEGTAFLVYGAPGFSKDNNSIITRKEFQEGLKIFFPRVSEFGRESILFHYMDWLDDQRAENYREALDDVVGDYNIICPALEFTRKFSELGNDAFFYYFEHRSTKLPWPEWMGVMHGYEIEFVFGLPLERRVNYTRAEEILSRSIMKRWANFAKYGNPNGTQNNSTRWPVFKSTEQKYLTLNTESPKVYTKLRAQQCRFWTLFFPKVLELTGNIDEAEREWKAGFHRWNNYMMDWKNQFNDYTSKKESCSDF
# [2] = biological target: Acetylcholinesterase (Electrophorus electricus) (UniProt O42275); assay: Inhibition of electric eel AChE at 10 uM using acetylthiocholine as substrate preincubated for 5 mins followed by substrate addition and measured after 5 mins by Ellman's method relative to control; details: time 10.0 min
# Sequence of Acetylcholinesterase (Electrophorus electricus) (O42275 24-633 limits assumed): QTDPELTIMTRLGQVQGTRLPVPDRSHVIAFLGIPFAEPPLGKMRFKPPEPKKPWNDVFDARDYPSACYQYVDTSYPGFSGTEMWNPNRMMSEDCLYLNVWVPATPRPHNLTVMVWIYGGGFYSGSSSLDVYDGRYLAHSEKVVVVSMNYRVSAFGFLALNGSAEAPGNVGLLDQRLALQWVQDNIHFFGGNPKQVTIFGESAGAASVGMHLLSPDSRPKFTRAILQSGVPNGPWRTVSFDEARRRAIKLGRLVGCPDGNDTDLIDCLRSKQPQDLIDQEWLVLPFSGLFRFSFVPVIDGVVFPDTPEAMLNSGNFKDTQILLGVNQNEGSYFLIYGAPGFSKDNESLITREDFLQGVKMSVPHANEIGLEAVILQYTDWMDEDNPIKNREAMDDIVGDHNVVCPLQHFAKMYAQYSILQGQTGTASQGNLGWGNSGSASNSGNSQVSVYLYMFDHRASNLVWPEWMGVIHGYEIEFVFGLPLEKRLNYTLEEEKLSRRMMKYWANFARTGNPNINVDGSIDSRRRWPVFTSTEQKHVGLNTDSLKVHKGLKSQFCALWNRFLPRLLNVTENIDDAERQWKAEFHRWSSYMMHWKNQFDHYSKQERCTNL
# Beta-secretase 1 [3] = biological target: T1, Beta-secretase 1 (Homo sapiens, UniProt P56817)
# T1 sequence (P56817 whole entry): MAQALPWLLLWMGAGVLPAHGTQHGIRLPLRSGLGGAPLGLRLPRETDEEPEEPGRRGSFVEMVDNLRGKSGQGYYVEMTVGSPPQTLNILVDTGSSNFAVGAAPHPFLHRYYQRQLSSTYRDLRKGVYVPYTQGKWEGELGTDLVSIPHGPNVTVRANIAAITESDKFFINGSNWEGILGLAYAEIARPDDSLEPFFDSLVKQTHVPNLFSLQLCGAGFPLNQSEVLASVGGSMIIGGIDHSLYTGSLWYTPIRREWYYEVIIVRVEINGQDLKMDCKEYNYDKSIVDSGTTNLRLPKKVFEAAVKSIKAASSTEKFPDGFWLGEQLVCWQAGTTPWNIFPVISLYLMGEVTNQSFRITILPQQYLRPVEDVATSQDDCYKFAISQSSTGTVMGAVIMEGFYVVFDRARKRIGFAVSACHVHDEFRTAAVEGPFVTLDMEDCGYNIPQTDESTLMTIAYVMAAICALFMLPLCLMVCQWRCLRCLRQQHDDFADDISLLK
# [4] = biological target: Amyloid-beta precursor protein (Homo sapiens) (UniProt P05067); assay: Inhibition of HFIP-pretreated amyloid beta (1 to 42) (unknown origin) aggregation at 10 uM after 36 to 48 hrs by thioflavin-T fluorescence assay relative to control; details: time 36-48 hrs
# Sequence of Amyloid-beta precursor protein (Homo sapiens) (P05067 whole entry): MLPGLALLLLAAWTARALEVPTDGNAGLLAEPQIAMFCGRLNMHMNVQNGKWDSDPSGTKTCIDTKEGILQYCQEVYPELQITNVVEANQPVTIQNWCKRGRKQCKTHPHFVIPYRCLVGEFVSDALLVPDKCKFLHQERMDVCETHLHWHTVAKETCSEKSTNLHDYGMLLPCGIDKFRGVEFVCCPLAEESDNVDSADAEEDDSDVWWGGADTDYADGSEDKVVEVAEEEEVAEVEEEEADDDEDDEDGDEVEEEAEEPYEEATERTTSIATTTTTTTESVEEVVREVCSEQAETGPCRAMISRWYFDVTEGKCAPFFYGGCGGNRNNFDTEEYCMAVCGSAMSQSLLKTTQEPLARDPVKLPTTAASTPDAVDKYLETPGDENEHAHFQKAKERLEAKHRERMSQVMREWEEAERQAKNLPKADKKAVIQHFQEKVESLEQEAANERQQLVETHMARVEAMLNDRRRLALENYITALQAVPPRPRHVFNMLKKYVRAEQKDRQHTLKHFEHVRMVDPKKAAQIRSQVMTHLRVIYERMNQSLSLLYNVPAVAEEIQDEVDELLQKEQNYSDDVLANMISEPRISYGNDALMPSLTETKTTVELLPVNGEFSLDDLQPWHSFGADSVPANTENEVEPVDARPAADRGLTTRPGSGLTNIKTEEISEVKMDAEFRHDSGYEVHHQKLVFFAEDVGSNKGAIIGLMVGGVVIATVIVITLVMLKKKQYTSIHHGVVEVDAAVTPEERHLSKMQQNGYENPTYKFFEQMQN
# Cholinesterase [5] = biological target: T2, Cholinesterase (Homo sapiens, UniProt P06276); assay: Inhibition of human BuchE at 1 uM using butyrylthiocholine as substrate preincubated for 5 mins followed by substrate addition and measured after 5 mins by Ellman's method relative to control; details: time 10.0 min
# T2 sequence (P06276 whole entry): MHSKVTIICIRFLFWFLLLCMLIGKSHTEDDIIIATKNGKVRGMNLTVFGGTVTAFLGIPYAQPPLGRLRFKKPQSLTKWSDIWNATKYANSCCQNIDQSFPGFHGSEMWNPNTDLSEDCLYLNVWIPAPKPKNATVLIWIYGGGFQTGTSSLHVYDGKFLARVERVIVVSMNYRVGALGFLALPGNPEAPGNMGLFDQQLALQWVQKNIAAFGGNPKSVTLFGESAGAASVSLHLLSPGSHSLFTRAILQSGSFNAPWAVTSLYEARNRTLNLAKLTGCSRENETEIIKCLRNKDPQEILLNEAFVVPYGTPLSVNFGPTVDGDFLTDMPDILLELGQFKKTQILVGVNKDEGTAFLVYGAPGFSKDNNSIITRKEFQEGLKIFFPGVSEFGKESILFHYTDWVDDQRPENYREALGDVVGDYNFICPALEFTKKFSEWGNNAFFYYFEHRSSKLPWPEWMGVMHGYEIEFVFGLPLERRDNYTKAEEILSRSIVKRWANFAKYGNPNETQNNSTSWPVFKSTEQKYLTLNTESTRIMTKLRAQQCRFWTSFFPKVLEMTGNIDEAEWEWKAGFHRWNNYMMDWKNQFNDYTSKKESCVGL
# [6] = biological target: T3, GABA transporter 4 (Mus musculus) (UniProt P31650); assay: Inhibition of mouse GAT4 expressed in HEK293 cell line assessed as reduction in [3H]GABA uptake at 100 uM incubated for 10 mins relative to control; type: cell-based
# T3 sequence (whole entry): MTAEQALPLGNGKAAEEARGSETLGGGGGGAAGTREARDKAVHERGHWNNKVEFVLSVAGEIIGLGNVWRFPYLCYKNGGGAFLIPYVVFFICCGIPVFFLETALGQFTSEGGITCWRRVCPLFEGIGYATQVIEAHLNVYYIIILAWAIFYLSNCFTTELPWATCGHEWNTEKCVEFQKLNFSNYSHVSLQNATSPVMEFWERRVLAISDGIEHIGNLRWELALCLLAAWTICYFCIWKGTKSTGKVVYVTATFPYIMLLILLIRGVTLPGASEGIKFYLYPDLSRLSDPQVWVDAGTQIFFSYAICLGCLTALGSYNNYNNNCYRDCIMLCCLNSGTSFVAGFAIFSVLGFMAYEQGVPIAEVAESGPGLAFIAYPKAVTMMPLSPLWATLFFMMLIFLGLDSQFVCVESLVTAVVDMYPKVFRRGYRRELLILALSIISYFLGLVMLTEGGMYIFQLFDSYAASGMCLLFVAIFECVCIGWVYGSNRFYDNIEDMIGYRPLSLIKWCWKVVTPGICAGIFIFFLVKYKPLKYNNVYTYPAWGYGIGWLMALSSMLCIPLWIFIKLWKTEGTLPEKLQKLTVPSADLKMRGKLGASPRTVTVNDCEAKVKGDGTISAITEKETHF
# [7] = Neurotoxicity against mouse HT22 cells assessed as cell viability at 10 uM incubated for 24 hrs by MTT assay; type: cell-based, HT-22; details: HT22 cells, read-out: Activity
# [8] = biological target: Sodium- and chloride-dependent GABA transporter 1 (Mus musculus) (UniProt P31648); assay: Inhibition of NO711 binding to mouse GAT1 expressed in HEK cell membranes at 100 uM incubated for 40 mins in presence of NO711 by LC-ESI-MS/MS analysis relative to control; details: Membrane
# [9] = biological target: Microtubule-associated protein tau (Homo sapiens) (UniProt P10636); assay: Inhibition of tau aggregation (unknown origin) at 10 uM after 72 hrs by thioflavin-T fluorometric assay relative to control
# [10] = biological target: Sodium- and chloride-dependent GABA transporter 1 (Mus musculus) (UniProt P31648); assay: Inhibition of mouse GAT1 expressed in HEK293 cell line assessed as reduction in [3H]GABA uptake at 100 uM incubated for 10 mins relative to control; type: cell-based
# Beta-secretase 1 [11] = biological target: T1, Beta-secretase 1; details: dose 50.0 µM, time 60.0 min
# [12] = biological target: T4, GABA transporter 3 (Mus musculus) (UniProt P31649); assay: Inhibition of mouse GAT2 expressed in HEK293 cell line assessed as reduction in [3H]GABA uptake at 100 uM incubated for 10 mins relative to control; type: cell-based
# T4 sequence (whole entry): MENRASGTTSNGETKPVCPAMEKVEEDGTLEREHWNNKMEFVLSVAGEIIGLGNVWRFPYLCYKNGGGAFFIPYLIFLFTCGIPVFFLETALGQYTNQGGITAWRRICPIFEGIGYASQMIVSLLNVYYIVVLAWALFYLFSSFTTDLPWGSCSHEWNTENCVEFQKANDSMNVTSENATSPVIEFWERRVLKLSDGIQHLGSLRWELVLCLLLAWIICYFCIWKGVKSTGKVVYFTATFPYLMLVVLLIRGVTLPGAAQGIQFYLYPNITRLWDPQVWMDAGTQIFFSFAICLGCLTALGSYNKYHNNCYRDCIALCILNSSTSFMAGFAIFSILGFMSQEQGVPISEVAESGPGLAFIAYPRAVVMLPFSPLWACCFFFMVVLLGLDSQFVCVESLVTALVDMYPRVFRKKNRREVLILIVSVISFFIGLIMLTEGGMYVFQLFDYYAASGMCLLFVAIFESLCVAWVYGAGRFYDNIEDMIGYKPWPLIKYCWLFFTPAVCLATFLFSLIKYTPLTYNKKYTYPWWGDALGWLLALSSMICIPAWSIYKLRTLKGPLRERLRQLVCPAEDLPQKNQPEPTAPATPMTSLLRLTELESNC
# [13] = Neurotoxicity against mouse HT22 cells assessed as cell viability at 30 uM incubated for 24 hrs by MTT assay; type: cell-based, HT-22; details: HT22 cells, read-out: Activity
# [14] = biological target: T3, GABA transporter 4 (Mus musculus); assay: Inhibition of mouse GAT3 expressed in HEK293 cell line assessed as reduction in [3H]GABA uptake at 100 uM incubated for 10 mins relative to control; type: cell-based
# Cholinesterase [15] = biological target: Cholinesterase (Equus caballus, UniProt P81908)
# Sequence of Cholinesterase (Equus caballus, UniProt P81908) (P81908 whole entry): as the sequence (P81908 whole entry) above
# Description: Inhibition of equine serum BuChE using butyrylthiocholine as substrate preincubated for 5 mins followed by substrate addition and measured after 5 mins by Ellman's method
# Cholinesterase [16] = biological target: T2, Cholinesterase
# Description: Inhibition of human BuchE using butyrylthiocholine as substrate preincubated for 5 mins followed by substrate addition and measured after 5 mins by Ellman's method
# Acetylcholinesterase = Acetylcholinesterase (Electrophorus electricus, UniProt O42275); assay: Inhibition of electric eel AChE using acetylthiocholine as substrate preincubated for 5 mins followed by substrate addition and measured after 5 mins by Ellman's method
# Sequence of Acetylcholinesterase (O42275 whole entry): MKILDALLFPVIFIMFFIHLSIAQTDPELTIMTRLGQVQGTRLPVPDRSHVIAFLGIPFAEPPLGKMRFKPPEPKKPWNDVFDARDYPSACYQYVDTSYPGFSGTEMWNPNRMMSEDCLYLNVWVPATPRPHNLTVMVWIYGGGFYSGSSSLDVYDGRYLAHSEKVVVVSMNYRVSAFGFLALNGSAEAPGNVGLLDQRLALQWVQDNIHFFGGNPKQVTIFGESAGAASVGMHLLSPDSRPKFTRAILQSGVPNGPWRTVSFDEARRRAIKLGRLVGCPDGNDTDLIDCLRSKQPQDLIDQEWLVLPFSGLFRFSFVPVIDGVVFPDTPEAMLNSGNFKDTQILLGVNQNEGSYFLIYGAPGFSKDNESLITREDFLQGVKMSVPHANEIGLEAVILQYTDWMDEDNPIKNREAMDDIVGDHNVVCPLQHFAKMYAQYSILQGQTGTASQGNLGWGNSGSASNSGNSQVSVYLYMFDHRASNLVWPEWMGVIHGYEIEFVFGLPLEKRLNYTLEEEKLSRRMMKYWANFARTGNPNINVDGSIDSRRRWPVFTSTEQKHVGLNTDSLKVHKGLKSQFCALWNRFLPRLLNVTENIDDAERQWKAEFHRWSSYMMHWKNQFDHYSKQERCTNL
compound,measurement,setting,value
O=C(CC(c1ccccc1)c1ccccc1)N[C@@H](Cc1ccccc1)[C@@H](O)CNCc1cccc(C(F)(F)F)c1,inhibition,[1],29.5%
same,inhibition,[2],36.8%
same,pIC50,Beta-secretase 1 [3],5.08
same,inhibition,[4],20.5%
same,inhibition,Cholinesterase [5],< 10%
C[C@H](NC[C@@H](O)[C@H](Cc1ccccc1)NC(=O)CC(c1ccccc1)c1ccccc1)c1ccccc1,inhibition,[6],55%
same,"viability at 24 h, 10 µM",[7],100%
same,inhibition,[8],66%
same,inhibition,[9],73.1%
same,inhibition,[10],59%
same,inhibition,[2],< 10%
same,inhibition,Beta-secretase 1 [11],74.1%
same,inhibition,[12],51%
same,"viability at 24 h, 30 µM",[13],50%
same,inhibition,[4],20.5%
same,inhibition,Cholinesterase [5],36.4%
same,inhibition,[14],69%
same,pIC50,Cholinesterase [15],5.05
O=C(CC(c1ccccc1)c1ccccc1)N[C@@H](Cc1ccccc1)[C@H](O)CNCC(F)(F)F,inhibition,[1],19.2%
same,inhibition,[2],< 10%
same,inhibition,Beta-secretase 1 [11],24.4%
same,inhibition,[4],20.5%
same,inhibition,Cholinesterase [5],< 10%
C[C@H](NC[C@@H](O)[C@H](Cc1ccccc1)NC(=O)C(c1ccccc1)c1ccccc1)c1ccccc1,inhibition,[6],79%
same,inhibition,[8],81%
same,inhibition,[10],77%
same,inhibition,[2],< 10%
same,inhibition,Beta-secretase 1 [11],61.7%
same,inhibition,[4],20.5%
same,inhibition,Cholinesterase [5],14.5%
same,inhibition,[14],84%
same,pIC50,Cholinesterase [15],5.74
O=C(N[C@@H](Cc1ccccc1)[C@H](O)CNCC(F)(F)F)C(c1ccccc1)c1ccccc1,inhibition,[6],102%
same,inhibition,[8],100%
same,inhibition,[1],26.3%
same,inhibition,[10],92%
same,inhibition,[2],< 10%
same,pIC50,Beta-secretase 1 [3],4.81
same,inhibition,[12],87%
same,inhibition,[4],20.5%
same,inhibition,Cholinesterase [5],< 10%
same,inhibition,[14],92%
CC(C)c1cccc(CNC[C@@H](O)[C@H](Cc2ccccc2)NC(=O)C(c2ccccc2)c2ccccc2)c1,pIC50,Cholinesterase [16],7.10
same,inhibition,Beta-secretase 1 [11],66%
same,inhibition,[4],20.5%
same,pIC50,Acetylcholinesterase,5.29
same,pIC50,Cholinesterase [15],6.30
